US20090163586A1, “Bis-(Sulfonylamino) Derivatives in Therapy 205” (AstraZeneca AB, priority 2007, published 2009)

What follows are molecules tested against T1, human mPGES-1 (Homo sapiens, UniProt O14684) (assay: Microsomal prostaglandin E synthase biochemical assay). Conditions: microsome preparation containing human mPGES-1; PGH2 10.8 μM, GSH 2.5 mM, pH 6.8; PGE2 by HTRF; average of at least n=2.
T1 sequence (O14684 1-152): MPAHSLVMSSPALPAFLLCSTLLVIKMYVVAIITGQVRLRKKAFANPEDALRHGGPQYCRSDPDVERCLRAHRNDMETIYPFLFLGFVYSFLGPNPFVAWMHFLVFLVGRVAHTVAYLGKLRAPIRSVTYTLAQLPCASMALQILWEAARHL
Procedure: Compounds were tested as inhibitors of microsomal prostaglandin E synthase activity in microsomal prostaglandin E synthase assays and whole cell assays. These assays measure prostaglandin E2 (PGE2) synthesis which is taken as a measure of prostaglandin E synthase activity. Microsomal prostaglandin E synthase biochemical assays used microsomal prostaglandin E synthase-1 in microsomal preparations. The source of the microsomes can be for example interleukin-1β-stimulated human A549 cells (which express human mPGES-1) or Sf9 cells transfected with plasmids encoding human mPGES-1 cDNA. The whole blood assay [described by Patrignani, P. et al., Journal of Pharmacology and Experimental Therapeutics, 1994, vol. 271, pp 1705-1712] was used as the whole cell assay for testing the compounds. Whole blood provides a protein and cell rich milieu for the study of biochemical efficacy of anti-inflammatory compounds such as prostaglandin synthase inhibitors. To study the inhibitory activities of these compounds, human blood was stimulated with lipopolysaccharide (LPS) for typically 16 hours to induce mPGES-1 expression, after which the concentration of produced PGE2 was measured by competitive-immuno assay (homogeneous time-resolved fluorescence, HTRF) as read out for effectiveness against mPGES-1-dependent PGE2 production.
Microsomal Prostaglandin E Synthase Biochemical Assay
A solution of test compound was added to a diluted microsome preparation containing human mPGES-1 and pre-incubated for 15 minutes in potassium phosphate buffer pH 6.8 with cofactor glutathione (GSH). Corresponding solutions without test compound were used as positive controls, and corresponding solutions without test compound and without microsomes were used as negative controls. The enzymatic reaction was then started by addition of the substrate PGH2 in an organic solution (dry acetonitrile).
The typical reaction conditions of the enzymatic reaction were thus: Test compound: ranging from 60 μM to 0.002 μM, or zero in positive and negative controls; potassium phosphate buffer pH 6.8: 50 mM; GSH: 2.5 mM; mPGES-1-containing microsomes: 2 μg/mL (sample and positive controls) or 0 μg/mL (negative control); PGH2: 10.8 μM; Acetonitrile: 7.7% (v/v); DMSO: 0.6% (v/v). The reaction was stopped after one minute by adding an acidic solution (pH 1.9) of ferric chloride and citrate (final concentrations 7 mM and 47 mM respectively), by which the PGH2 was sequestered (the PGH2 is reduced to mainly 12-hydroxy heptadecatrineoic acid (12-HHT) which is not detected by the subsequent PGE2 detection step). The resulting solution was then pH neutralized by addition of potassium phosphate buffer, prior to diluting an aliquot of the resulting solution in a weak potassium phosphate buffer (50 mM, pH 6.8) containing 0.2% BSA (w/v). [Adapted from Jacobsson et al., Proc. Natl. Acad. Sci. USA, 1999, vol. 96, pp. 7220-7225]The PGE2 formed was quantified by use of a commercial HTRF based kit (catalogue #62PG2PEC or #62P2APEC from Cisbio International). 100% activity was defined as the PGE2 production in positive controls subtracted by the PGE2 production in the negative controls. IC50 values were then determined using standard procedures.
The potency is expressed as IC50 and the value indicated is an average of at least n=2.
In the case of `COc1ncc(-c2cccc(S(=O)(=O)Nc3ccccc3S(N)(=O)=O)c2)cc1Cl` [Example 169, 3-(5-Chloro-6-methoxy-pyridin-3-yl)-N-(2-sulfamoylphenyl)benzenesulfonamide], the IC50 is reported as 22 nM. `NS(=O)(=O)c1ccccc1NS(=O)(=O)c1cccc(F)c1F` [Example 146, 2,3-Difluoro-N-(2-sulfamoylphenyl)benzenesulfonamide] gave an IC50 of 4700 nM. In the case of `COc1ccccc1/C=C/S(=O)(=O)Nc1c(F)cccc1S(N)(=O)=O` [Example 60, 3-Fluoro-2-[[(E)-2-(2-methoxyphenyl)ethenyl]sulfonylamino]benzenesulfonamide], the IC50 is reported as 2400 nM. Molecule `NS(=O)(=O)c1ccc(F)cc1NS(=O)(=O)/C=C/c1ccc(-c2ccco2)cc1` [Example 34, 4-Fluoro-2-[[(E)-2-[4-(2-furyl)phenyl]ethenyl]sulfonylamino]benzenesulfonamide] has an IC50 of 120 nM. For `NS(=O)(=O)c1c(F)cccc1NS(=O)(=O)/C=C/c1ccc(-c2cc3ccccc3o2)cc1` [Example 6, 2-[[(E)-2-(4-Benzofuran-2-ylphenyl)ethenyl]sulfonylamino]-6-fluoro-benzenesulfonamide], the IC50 was 74 nM. Molecule `NS(=O)(=O)c1ccccc1NS(=O)(=O)c1ccc(OCc2cnc(Cl)s2)cc1` [Example 163, 2-[[4-[(2-Chlorol,3-thiazol-5-yl)methoxy]phenyl]sulfonylamino]benzenesulfonamide] has an IC50 of 460 nM. `NS(=O)(=O)c1cc(F)ccc1NS(=O)(=O)c1cccc(F)c1F` [Example 147, 2,3-Difluoro-N-(4-fluoro-2-sulfamoyl-phenyl)benzenesulfonamide] showed an IC50 of 3900 nM. Work on `NS(=O)(=O)c1ccccc1NS(=O)(=O)c1cccc(-c2cccc3c2oc2ccccc23)c1` [Example 133, 3-Dibenzofuran-4-yl-N-(2-sulfamoylphenyl)benzenesulfonamide] yielded an IC50 of 2200 nM. In the case of `NS(=O)(=O)c1ccccc1NS(=O)(=O)c1ccc(-c2ccc(Cl)c(Cl)c2)cc1` [Example 173, 2-[[4-(3,4-Dichlorophenyl)phenyl]sulfonylamino]benzenesulfonamide], the IC50 is reported as 1500 nM. `Cc1ccc(NS(=O)(=O)CCc2ccc(C#CC(C)(C)C)cc2)c(S(N)(=O)=O)c1` [Example 210, 2-{2-[4-(3,3-Dimethyl-but-1-ynyl)-phenyl]-ethanesulfonylamino}-5-methyl-benzenesulfonamide] gave an IC50 of 360 nM. `NS(=O)(=O)c1ccc(F)cc1NS(=O)(=O)/C=C/c1ccccc1C(F)(F)F` [Example 93, 4-Fluoro-2-[[(E)-2-[2-(trifluoromethyl)phenyl]ethenyl]sulfonylamino]-benzenesulfonamide] was tested, and the IC50 was 650 nM. With `NS(=O)(=O)c1ccccc1NS(=O)(=O)CCc1ccc(OC(F)F)cc1` [Example 19, 2-[2-[4-(Difluoromethoxy)phenyl]ethylsulfonylamino]benzenesulfonamide] the IC50 was 1400 nM. Molecule `COc1ncc(-c2cccc(S(=O)(=O)Nc3ccccc3S(N)(=O)=O)c2)cn1` [Example 165, 3-(2-Methoxypyrimidin-5-yl)-N-(2-sulfamoylphenyl)benzenesulfonamide] has an IC50 of 2300 nM. With `NS(=O)(=O)c1ccc(F)cc1NS(=O)(=O)/C=C/c1ccc(Cl)cc1` [Example 78, 2-[[(E)-2-(4-Chlorophenyl)ethenyl]sulfonylamino]-4-fluoro-benzenesulfonamide] the IC50 was 350 nM. `NS(=O)(=O)c1ccc(F)cc1NS(=O)(=O)/C=C/c1ccc(Br)cc1` [Example 95, 2-[[(E)-2-(4-Bromophenyl)ethenyl]sulfonylamino]-4-fluoro-benzenesulfonamide] showed an IC50 of 310 nM. `NS(=O)(=O)c1ccccc1NS(=O)(=O)/C=C/c1ccc2ccccc2c1` [Example 84, 2-[[(E)-2-Naphthalen-2-ylethenyl]sulfonylamino]benzenesulfonamide] showed an IC50 of 190 nM. `NS(=O)(=O)c1ccc(F)cc1NS(=O)(=O)/C=C/c1ccccc1F` [Example 67, 4-Fluoro-2-[[(E)-2-(2-fluorophenyl)ethenyl]sulfonylamino]benzenesulfonamide] showed an IC50 of 6400 nM. In the case of `NS(=O)(=O)c1cc(F)ccc1NS(=O)(=O)/C=C/c1ccc(Cl)c(Cl)c1` [Example 24, 2-[[(E)-2-(3,4-Dichlorophenyl)ethenyl]sulfonylamino]-5-fluoro-benzenesulfonamide], the IC50 is reported as 300 nM. For `NS(=O)(=O)c1ccccc1NS(=O)(=O)/C=C/c1cccc(C(F)(F)F)c1` [Example 192, (E)-2-(2-(3-(Trifluoromethyl)phenyl)vinylsulfonamido)benzenesulfonamide], the IC50 was 3200 nM. Molecule `Cc1ccc(NS(=O)(=O)/C=C/c2ccc3ccccc3c2)c(S(N)(=O)=O)c1` [Example 96, 5-Methyl-2-[[(E)-2-naphthalen-2-ylethenyl]sulfonylamino]benzenesulfonamide] has an IC50 of 4800 nM. `NS(=O)(=O)c1ccccc1NS(=O)(=O)CCc1ccc(C#CC2CCCCC2)nc1` [Example 188, 2-(2-(6-(cyclohexylethynyl)pyridin-3-yl)ethylsulfonamido)benzenesulfonamide] gave an IC50 of 270 nM. `CC(C)(C)c1ccc(CCS(=O)(=O)Nc2ccccc2S(N)(=O)=O)cc1` [Example 70, 2-[2-(4-Tert-butylphenyl)ethylsulfonylamino]benzenesulfonamide] was tested, and the IC50 was 220 nM. In the case of `NS(=O)(=O)c1ccccc1NS(=O)(=O)/C=C/c1ccccc1` [Example 75, 2-[[(E)-2-Phenylethenyl]sulfonylamino]benzenesulfonamide], the IC50 is reported as 2600 nM. For `CC(CS(=O)(=O)Nc1ccccc1S(N)(=O)=O)c1ccccc1` (centres unmarked) [Example 79, 2-(2-Phenylpropylsulfonylamino)benzenesulfonamide], the IC50 was 9900 nM. `C/C(=C\c1ccc(Cl)cc1)S(=O)(=O)Nc1cccc(F)c1S(N)(=O)=O` [Example 13, 2-[[(E)-1-(4-Chlorophenyl)prop-1-en-2-yl]sulfonylamino]-6-fluoro-benzenesulfonamide] gave an IC50 of 520 nM. With `NS(=O)(=O)c1ccccc1NS(=O)(=O)c1cccc(-c2cc3ccccc3o2)c1` [Example 136, 3-Benzofuran-2-yl-N-(2-sulfamoylphenyl)benzenesulfonamide] the IC50 was 3800 nM. `NS(=O)(=O)c1cc(F)ccc1NS(=O)(=O)/C=C/c1ccc(Br)cc1` [Example 102, 2-[[(E)-2-(4-Bromophenyl)ethenyl]sulfonylamino]-5-fluoro-benzenesulfonamide] gave an IC50 of 850 nM. For `NC(=O)c1ccc(NS(=O)(=O)c2cccc(-c3ccc(Cl)c(Cl)c3)c2)c(S(N)(=O)=O)c1` [Example 151, 4-[[3-(3,4-Dichlorophenyl)phenyl]sulfonylamino]-3-sulfamoyl-benzamide], the IC50 was 3700 nM. `CC(C)(O)C#Cc1ccc(CCS(=O)(=O)Nc2ccccc2S(N)(=O)=O)cc1` [Example 184, 2-(2-(4-(3-Hydroxy-3-methylbut-1-ynyl)phenyl)ethylsulfonamido)benzenesulfonamide] gave an IC50 of 9600 nM. In the case of `CNS(=O)(=O)c1ccc2c(c1)-c1cc(S(=O)(=O)Nc3ccccc3S(N)(=O)=O)ccc1S2(=O)=O` [Example 177, N-Methyl-N′-(2-sulfamoylphenyl)dibenzo[b,d]thiophene-2,8-disulfonamide 5,5-dioxide], the IC50 is reported as 2200 nM. Work on `NS(=O)(=O)c1ccccc1NS(=O)(=O)/C=C/c1ccc(OC(F)F)cc1` [Example 20, 2-[[(E)-2-[4-(Difluoromethoxy)phenyl]ethenyl]sulfonylamino]benzenesulfonamide] yielded an IC50 of 700 nM. Molecule `NS(=O)(=O)c1c(F)cc(F)cc1NS(=O)(=O)CCc1ccc(Cl)c(Cl)c1` [Example 197, 2-(2-(3,4-Dichlorophenyl)ethylsulfonamido)-4,6-difluorobenzenesulfonamide] has an IC50 of 640 nM.
